Reference: patent publication US7670782B2, “Screening of compounds for CAT1 transporter activity” (XenoPort, Inc., priority 2005, dated 2010)

Experiments:
hCAT1 [1] = target: T1, hCAT1 (Homo sapiens, UniProt P30825); experiment: hCAT1 competition uptake assay (inhibition of 3H-arginine uptake into LLCPK-TREx-hCAT1 cells); assay type: cell-based; settings: 3H-arginine as substrate; for IC50: LLCPK-TREx-hCAT1 cells induced to express hCAT1, 10 minutes at room temperature
T1 construct: expressed in transfected cells; host or cells: LLCPK-TREx (porcine kidney epithelial) cells, induced with tetracycline and butyrate
T1 sequence (P30825 whole entry): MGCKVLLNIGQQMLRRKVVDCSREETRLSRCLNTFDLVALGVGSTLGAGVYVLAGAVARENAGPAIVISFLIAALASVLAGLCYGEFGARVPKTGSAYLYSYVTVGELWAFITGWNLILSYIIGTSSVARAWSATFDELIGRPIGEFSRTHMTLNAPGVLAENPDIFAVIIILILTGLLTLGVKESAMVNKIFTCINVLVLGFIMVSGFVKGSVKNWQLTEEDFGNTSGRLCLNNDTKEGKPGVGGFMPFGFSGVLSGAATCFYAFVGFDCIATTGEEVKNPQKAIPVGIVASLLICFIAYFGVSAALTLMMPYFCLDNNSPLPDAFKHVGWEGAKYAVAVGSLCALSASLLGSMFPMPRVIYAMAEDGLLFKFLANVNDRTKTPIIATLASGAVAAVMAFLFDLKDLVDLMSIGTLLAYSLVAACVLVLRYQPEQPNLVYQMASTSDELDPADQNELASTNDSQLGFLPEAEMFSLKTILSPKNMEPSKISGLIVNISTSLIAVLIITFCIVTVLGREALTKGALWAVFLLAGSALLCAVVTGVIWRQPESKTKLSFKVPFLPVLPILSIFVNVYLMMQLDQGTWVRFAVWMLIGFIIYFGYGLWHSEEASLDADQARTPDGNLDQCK
Procedure: A modified competition uptake assay was developed to determine the ability of a test compound(s) to inhibit the uptake of radiolabeled substrates into LLCPK-TREx-hCAT1 cells induced to over-express hCAT1. The results are stated as affinities (IC50).
The competition uptake assay was prepared as follows: Compounds were prepared for assay by diluting a 100 mM stock concentration (in DMSO) to the appropriate working concentration. Typically, seven-point dose response curves were prepared starting at a final assay concentration of 3 mM and carrying out three-fold dilutions. These dilutions were prepared by making a working “compound” plate that contained a 2×solution of the desired starting concentration of each test compound in duplicate in row A of a v-bottom microtiter plate. Six 3-fold serial dilutions (from row B to G) were made into the sodium free HBSS assay buffer (60 mg/L KH2PO4 (0.4 mM) (Sigma; P-0662); 0.42 g/L KHCO3 (4.17 mM); (Sigma; P-6037); 1 g/L Glucose ([…]) (Sigma; G-7528); 2.1 g/L MOPS (10 mM) (Sigma; M-1254); 1.05 ml/L MgCl2.(H2O)6 (Sigma; M-1028); 100 mg/L MgSO4.(H2O)7 (Sigma; M-5921); 140 mg/L CaCl2 (1.3 mM)(Sigma; C-5080); 19.1 g/L Choline Chloride (137 mM) (Sigma; C-7527), pH to 7.4 with KOH) with the appropriate amount of DMSO so that the DMSO concentration remained constant at all dilutions. The resulting “compound” plate contained serial dilutions of six compounds in duplicate. The final row (H) of the assay plate was filled with HBSS buffer alone (H1-H6) or 10 mM unlabeled Arginine in HBSS (H7-H12) to measure the total or non-specific uptake, respectively.
^3H-Arginine was diluted into HBSS buffer to a final concentration of 4,000 cpm/μl. Sufficient solution was prepared to allow addition of 25 μl/well (the final concentration was 100,000 cpm/well).
LLCPK-TREx-hCAT1 cells, plated in 96-well plates and treated with 2 mM butyrate and tetracycline (or tet analog (e.g., doxycycline), were removed from the CO2 incubator. Growth media was removed from the cells, and the cells were washed twice in room temperature HBSS (100 μl/well/wash) using a 96-well plate washer (Bio Tek ELX405). Alternatively, cells were washed manually with equivalent volumes using a multichannel pipettor. Immediately before beginning the assay, the final 100 μl wash solution was removed from the cells by aspiration.
Using a 96-well pipettor, 25 μl from the “compound” plate was added to each well of the cell plate. The assay was started by adding 25 μl of the ^3H-Arginine working solution. The plate was incubated at room temperature for 10 minutes. The assay was stopped by washing the cells four times with ice-cold HBSS buffer using a ELX405 plate washer (100 μl buffer/well/wash) having an angled buffer dispenser.
Scintillation fluid (200 μl) (Optiphase Supermix (Perkin Elmer) was added to each well, and the plate was covered with a 96-well adhesive plate cover and placed on a shaker for 20 minutes. The plates were counted on a 96-well plate scintillation counter for 60 sec/well. The data were analyzed using a sigmoidal dose response curve-fitting program (Prism, GraphPad, Inc, San Diego, Calif.; equation: one-site competition).
The competition experiment was performed as described in Example 7. Non-specific uptake was determined by measuring the uptake into cells not induced to express the transporter (“no tet”). […] In control cells, uptake of labeled arginine remained at background levels and was largely unaffected by an excess of unlabeled substrates.

PgP = target: T2, PgP (Homo sapiens, UniProt P08183); experiment: Transwell monolayer efflux assay in MDCK cells transfected with TREx-PgP; assay type: in vitro ADME; settings: 2.5 nM 3H-vinblastine, absence and presence of 250 μM verapamil
T2 construct: purchased BD Biosciences; host or cells: baculovirus membranes
T2 sequence (P08183 whole entry): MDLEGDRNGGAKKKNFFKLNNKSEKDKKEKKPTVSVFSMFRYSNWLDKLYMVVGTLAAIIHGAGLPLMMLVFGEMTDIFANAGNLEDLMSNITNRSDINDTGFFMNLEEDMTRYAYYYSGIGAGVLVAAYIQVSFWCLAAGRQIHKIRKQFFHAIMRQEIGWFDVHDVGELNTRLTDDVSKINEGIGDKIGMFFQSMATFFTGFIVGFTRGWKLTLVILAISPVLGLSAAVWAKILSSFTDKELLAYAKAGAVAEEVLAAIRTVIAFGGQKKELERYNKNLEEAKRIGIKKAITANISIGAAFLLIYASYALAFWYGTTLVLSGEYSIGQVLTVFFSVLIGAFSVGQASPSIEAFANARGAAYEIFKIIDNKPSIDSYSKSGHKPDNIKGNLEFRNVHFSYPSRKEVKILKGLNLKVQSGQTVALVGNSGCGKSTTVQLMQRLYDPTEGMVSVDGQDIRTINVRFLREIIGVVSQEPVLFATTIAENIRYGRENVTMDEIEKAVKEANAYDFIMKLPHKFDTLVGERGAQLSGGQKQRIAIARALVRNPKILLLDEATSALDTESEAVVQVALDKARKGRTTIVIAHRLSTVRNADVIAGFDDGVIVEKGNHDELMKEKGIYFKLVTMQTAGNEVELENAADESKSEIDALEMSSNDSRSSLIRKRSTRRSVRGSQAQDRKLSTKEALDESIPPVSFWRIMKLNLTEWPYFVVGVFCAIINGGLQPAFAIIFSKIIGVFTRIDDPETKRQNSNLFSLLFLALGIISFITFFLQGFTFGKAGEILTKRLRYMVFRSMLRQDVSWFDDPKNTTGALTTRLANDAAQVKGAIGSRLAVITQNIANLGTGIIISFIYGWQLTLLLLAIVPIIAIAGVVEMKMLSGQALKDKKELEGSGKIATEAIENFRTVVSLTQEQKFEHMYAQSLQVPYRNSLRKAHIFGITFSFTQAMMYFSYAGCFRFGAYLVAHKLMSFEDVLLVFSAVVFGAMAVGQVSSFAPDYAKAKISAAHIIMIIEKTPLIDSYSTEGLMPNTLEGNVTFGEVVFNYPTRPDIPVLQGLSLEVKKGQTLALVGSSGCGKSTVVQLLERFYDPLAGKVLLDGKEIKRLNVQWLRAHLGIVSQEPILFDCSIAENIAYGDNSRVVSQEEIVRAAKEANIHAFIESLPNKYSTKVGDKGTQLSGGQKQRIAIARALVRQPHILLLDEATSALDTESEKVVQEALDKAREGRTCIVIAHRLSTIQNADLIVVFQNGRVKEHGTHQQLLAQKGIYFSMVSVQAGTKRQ
Procedure: Transwell monolayer efflux assays can be performed by transfecting MDCK cells with the tetracycline-inducible TREx-PgP expression vector. The cells optionally can be transfected with a nucleic acid encoding the transporter of interest. The transfected cells are seeded on polycarbonate filter membranes in transwell dishes and grown for 3-5 days, yielding a polarized monolayer with tight junctions between cells.

hCAT1 [2] = target: T1, hCAT1; experiment: hCAT1 direct uptake assay (LC-MS-MS, LLCPK-TREx-hCAT1 cells induced vs no tet); assay type: cell-based; settings: direct uptake into LLCPK-TREx-hCAT1 cells
Procedure: Four concentrations (bracketing the affinity as measured by competition assays) per compound were routinely tested. Non-specific uptake was determined by measuring the uptake into cells not induced to express the transporter (“no tet”).
Typically, four concentrations bracketing the IC50 were tested. […] The samples were robustly vortexed and centrifuged for 10 minutes at 13,200 rpm to spin down any precipitate. […] Three additional 2-fold dilutions were made in the subsequent rows (B-D or […]) in HBSS.
An internal standard of 50 μM propranolol in 50:50 ethanol:water was also prepared.
The cells were washed twice in room temperature HBSS (100 μl/well/wash) using a 96-well plate washer (Bio Tek ELX405). Alternatively, cells were washed manually with equivalent volumes using a multichannel pipettor. Immediately before the assay was begun, the final 100 μl wash solution was removed from the cells.
After the final wash, as much of the wash buffer as possible was removed by aspirating the wells with a probe that reached the bottom of the wells. (Residual salts from the wash buffer can adversely affect the LC-MS-MS by disrupting the LC method or by suppressing the MS signal.) 150 μl of a 50:50 ethanol:water solution was added to each well to lyse the cells and extract the test compound. The plate was covered and allowed to sit for 20 minutes at room temperature to ensure cell lysis.
120 μl of the cell extract was removed from each well and transferred to a fresh 96-well v-bottom polypropylene plate. This plate was covered with an adherent cover (top seal) and centrifuged for 15 minutes at 5,700 rpm (Allegra 25R centrifuge) at 4° C. to pellet any cell precipitate. 10 μl of the 50 μM propranolol solution was added to each well of a fresh 96-well plate (a plate amenable for sampling in the LC-MS-MS). […] The levels of intracellular compounds were determined by converting the peak area to concentration by extrapolating from the standard curve for each compound. Uptake was expressed as μM/well.

N=C(N)NCCC[C@H](N)C(=O)O [Arginine, arginine] was tested, and the IC50 (hCAT1 [1]) was 83 µM.
With NCCCC[C@H](N)C(=O)O [Lysine, lysine] the IC50 (hCAT1 [1]) was 140 µM.
NCCC[C@H](N)C(=O)O [Ornithine, ornithine] showed an IC50 (hCAT1 [1]) of 73 µM.
CC[C@]1(O)C[C@@H]2CN(CCc3c([nH]c4ccccc34)[C@@](C(=O)OC)(c3cc4c(cc3OC)N(C)[C@H]3[C@@](O)(C(=O)OC)[C@H](OC(C)=O)[C@]5(CC)C=CCN6CC[C@]43[C@@H]65)C2)C1 [^3H-vinblastine, vinblastine] was tested, and the “PgP substrate status from apical to basolateral and basolateral to apical transport” value (PgP) was “substrate of PgP”.
In the case of N-methyl arginine [N-Me-Arg], the pKm (hCAT1 [2]) is reported as 3.8, the Vmax (hCAT1 [2]; 5 minutes at room temperature) is reported as 3.9 μM/well and the Km (hCAT1 [2]; 5 minutes at room temperature, specific uptake (+TET minus no TET)) is reported as 158 µM. It also gave a pIC50 (hCAT1 [1]; LLCPK-TREx-hCAT1 cells induced to express hCAT1) of 3.7 and an IC50 (hCAT1 [1]) of 190 µM.
